Test results from patent US12599136B2, “Substituted isophthalic acid diamides and their use as herbicides” (Bayer Aktiengesellschaft, priority 2020, dated 2026).

Legend:
Format in all cases: in vivo
Cyperus esculentus [1] = experiment: Pre-emergence herbicidal action against CYPES; conditions: visual score after 3 weeks vs untreated controls
In short: (§1)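 Sandy loam pots, seeds covered with soil, then surface-treated with WP or EC formulations at 600–800 l/ha water plus 0.2% wetting agent. Greenhouse, 3 weeks. Percent damage vs untreated controls.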

Hordeum murinum [2] = experiment: Post-emergence herbicidal action against HORMU
Experimental: (§2) Seeds of monocotyledonous and dicotyledonous weed and crop plants are laid out in sandy loam soil in wood-fiber pots, covered with soil and cultivated in a greenhouse under good growth conditions. 2 to 3 weeks after sowing, the test plants are treated at the one-leaf stage. The compounds of the invention, formulated in the form of wettable powders (WP) or as emulsion concentrates (EC), are then sprayed onto the green parts of the plants in the form of an aqueous suspension or emulsion at a water application rate equivalent to 600 to 800 l/ha, with addition of 0.2% wetting agent. After the test plants have been left to stand in the greenhouse under optimal growth conditions for about 3 weeks, the action of the preparations is assessed visually in comparison to untreated controls (herbicidal action in percent (%): 100% activity=the plants have died, 0% activity=like control plants). […] The tables below illustrate, in an illustrative manner, the post-emergence herbicidal action of the compounds of the invention, the herbicidal activity being stated in percent.

Stellaria media [3] = experiment: Post-emergence herbicidal action against STEME; conditions: visual assessment about 3 weeks after treatment
In short: (§3)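 Herbicidal action is a visual percentage rating (0% = as untreated control, 100% = plants dead) made roughly 3 weeks after treatment. Plants were grown in sandy loam in the greenhouse and treated at the one-leaf stage, 2 to 3 weeks post-sowing. Treatment was a foliar spray of wettable-powder or emulsion-concentrate formulations at 600 to 800 l/ha water plus 0.2% wetting agent.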

Polygonum convolvulus = experiment: Post-emergence herbicidal action against POLCO; conditions: 80 g/ha, visual assessment about 3 weeks after treatment
Experimental: as §2

Amaranthus retroflexus [4] = experiment: Pre-emergence herbicidal action against AMARE; conditions: visual score after 3 weeks vs untreated controls
In short: as §1

Avena fatua [5] = experiment: Post-emergence herbicidal action against AVEFA; conditions: visual assessment about 3 weeks after treatment
In short: as §3

Abutilon theophrasti [6] = experiment: Post-emergence herbicidal action against ABUTH
In short: as §3

Avena fatua [7] = experiment: Pre-emergence herbicidal action against AVEFA; conditions: 320 g/ha; visual score after 3 weeks vs untreated controls
In short: as §1

Veronica persica [8] = experiment: Post-emergence herbicidal action against VERPE; conditions: 80 g/ha, visual assessment about 3 weeks after treatment
In short: as §3

Alopecurus myosuroides [9] = experiment: Post-emergence herbicidal action against ALOMY
In short: as §3

Echinochloa crus-galli [10] = experiment: Post-emergence herbicidal action against ECHCG; conditions: visual assessment about 3 weeks after treatment
In short: as §3

Viola tricolor [11] = experiment: Post-emergence herbicidal action against VIOTR
In short: as §3

Veronica persica [12] = experiment: Pre-emergence herbicidal action against VERPE; conditions: 320 g/ha
In short: as §1

Hordeum murinum [13] = experiment: Pre-emergence herbicidal action against HORMU; conditions: 320 g/ha; visual score after 3 weeks vs untreated controls
In short: as §1

Cyperus esculentus [14] = experiment: Post-emergence herbicidal action against CYPES; conditions: 80 g/ha, visual assessment about 3 weeks after treatment
Experimental: as §2

Setaria viridis [15] = experiment: Pre-emergence herbicidal action against SETVI
In short: as §1

Matricaria inodora [16] = experiment: Pre-emergence herbicidal action against MATIN; conditions: visual score after 3 weeks vs untreated controls
In short: as §1

Stellaria media [17] = experiment: Pre-emergence herbicidal action against STEME
In short: as §1

Pharbitis purpurea [18] = experiment: Pre-emergence herbicidal action against PHBPU; conditions: 320 g/ha; visual score after 3 weeks vs untreated controls
In short: as §1

Matricaria inodora [19] = experiment: Post-emergence herbicidal action against MATIN; conditions: visual assessment about 3 weeks after treatment
In short: as §3

Viola tricolor [20] = experiment: Pre-emergence herbicidal action against VIOTR
In short: as §1

Abutilon theophrasti [21] = experiment: Pre-emergence herbicidal action against ABUTH; conditions: visual score after 3 weeks vs untreated controls
In short: as §1

Lolium rigidum = experiment: Pre-emergence herbicidal action against LOLRI; conditions: 320 g/ha
In short: as §1

Alopecurus myosuroides [22] = experiment: Pre-emergence herbicidal action against ALOMY; conditions: visual score after 3 weeks vs untreated controls
In short: as §1

Pharbitis purpurea [23] = experiment: Post-emergence herbicidal action against PHBPU; conditions: visual assessment about 3 weeks after treatment
In short: as §3

Echinochloa crus-galli [24] = experiment: Pre-emergence herbicidal action against ECHCG; conditions: visual score after 3 weeks vs untreated controls
In short: as §1

Amaranthus retroflexus [25] = experiment: Post-emergence herbicidal action against AMARE; conditions: visual assessment about 3 weeks after treatment
In short: as §3

Setaria viridis [26] = experiment: Post-emergence herbicidal action against SETVI; conditions: visual assessment about 3 weeks after treatment
In short: as §3

CCCn1nnnc1NC(=O)c1ccc(C(F)(F)F)c(C(=O)N(C)CC)c1Cl [Example 3-124] was tested, and the “Pre-emergence action against CYPES” value (Cyperus esculentus [1]; 80 g/ha) was 80%, the “Pre-emergence action against CYPES” value (Cyperus esculentus [1]; 320 g/ha) was 90% and the “Post-emergence action against HORMU in %” value (Hordeum murinum [2]; 20 g/ha) was 80%. For the same molecule, the “Post-emergence action against HORMU in %” value (Hordeum murinum [2]; 80 g/ha) was 80%, the “Post-emergence action against STEME in %” value (Stellaria media [3]; 5 g/ha) was 90% and the “Post-emergence action against STEME in %” value (Stellaria media [3]; 20 g/ha) was 100%. For the same molecule, the “Post-emergence action against STEME in %” value (Stellaria media [3]; 80 g/ha) was 100%, the “Post-emergence action against POLCO in %” value (Polygonum convolvulus) was 80% and the “Pre-emergence action against AMARE” value (Amaranthus retroflexus [4]; 20 g/ha) was 90%. The “Pre-emergence action against AMARE” value (Amaranthus retroflexus [4]; 80 g/ha) was 100%, the “Pre-emergence action against AMARE” value (Amaranthus retroflexus [4]; 320 g/ha) was 100% and the “Post-emergence action against AVEFA in %” value (Avena fatua [5]; 20 g/ha) was 80%. The “Post-emergence action against AVEFA in %” value (Avena fatua [5]; 80 g/ha) was 100%, the “Post-emergence action against ABUTH” value (Abutilon theophrasti [6]; 5 g/ha) was 100% and the “Post-emergence action against ABUTH” value (Abutilon theophrasti [6]; 20 g/ha) was 100%. The “Post-emergence action against ABUTH” value (Abutilon theophrasti [6]; 80 g/ha) was 100%, the “Pre-emergence action against AVEFA” value (Avena fatua [7]) was 100% and the “Post-emergence action against VERPE in %” value (Veronica persica [8]) was 80%. For the same molecule, the “Post-emergence action against ALOMY” value (Alopecurus myosuroides [9]; 20 g/ha) was 80%, the “Post-emergence action against ALOMY” value (Alopecurus myosuroides [9]; 80 g/ha) was 100% and the “Post-emergence action against ECHCG in %” value (Echinochloa crus-galli [10]; 5 g/ha) was 90%. The “Post-emergence action against ECHCG in %” value (Echinochloa crus-galli [10]; 20 g/ha) was 100%, the “Post-emergence action against ECHCG in %” value (Echinochloa crus-galli [10]; 80 g/ha) was 100% and the “Post-emergence action against VIOTR in %” value (Viola tricolor [11]; 5 g/ha) was 100%. The “Post-emergence action against VIOTR in %” value (Viola tricolor [11]; 20 g/ha) was 100%, the “Post-emergence action against VIOTR in %” value (Viola tricolor [11]; 80 g/ha) was 100% and the “Pre-emergence action against VERPE” value (Veronica persica [12]) was 90%. The “Pre-emergence action against HORMU” value (Hordeum murinum [13]) was 80%, the “Post-emergence action against CYPES in %” value (Cyperus esculentus [14]) was 80% and the “Pre-emergence action against SETVI” value (Setaria viridis [15]; 80 g/ha) was 90%. The “Pre-emergence action against SETVI” value (Setaria viridis [15]; 320 g/ha) was 100%, the “Pre-emergence action against MATIN” value (Matricaria inodora [16]; 20 g/ha) was 80% and the “Pre-emergence action against MATIN” value (Matricaria inodora [16]; 80 g/ha) was 90%. For the same molecule, the “Pre-emergence action against MATIN” value (Matricaria inodora [16]; 320 g/ha) was 90%, the “Pre-emergence action against STEME” value (Stellaria media [17]; 20 g/ha) was 90% and the “Pre-emergence action against STEME” value (Stellaria media [17]; 80 g/ha) was 100%. For the same molecule, the “Pre-emergence action against STEME” value (Stellaria media [17]; 320 g/ha) was 100%, the “Pre-emergence action against PHBPU” value (Pharbitis purpurea [18]) was 90% and the “Post-emergence action against MATIN in %” value (Matricaria inodora [19]; 5 g/ha) was 90%. The “Post-emergence action against MATIN in %” value (Matricaria inodora [19]; 20 g/ha) was 100%, the “Post-emergence action against MATIN in %” value (Matricaria inodora [19]; 80 g/ha) was 100% and the “Pre-emergence action against VIOTR” value (Viola tricolor [20]; 80 g/ha) was 80%. For the same molecule, the “Pre-emergence action against VIOTR” value (Viola tricolor [20]; 320 g/ha) was 100%, the “Pre-emergence action against ABUTH” value (Abutilon theophrasti [21]; 20 g/ha) was 100% and the “Pre-emergence action against ABUTH” value (Abutilon theophrasti [21]; 80 g/ha) was 100%. For the same molecule, the “Pre-emergence action against ABUTH” value (Abutilon theophrasti [21]; Dosage column 320 g/ha (heading prints 3200 g/ha)) was 100%, the “Pre-emergence action against LOLRI” value (Lolium rigidum) was 80% and the “Pre-emergence action against ALOMY” value (Alopecurus myosuroides [22]; 80 g/ha) was 80%. The “Pre-emergence action against ALOMY” value (Alopecurus myosuroides [22]; 320 g/ha) was 90%, the “Post-emergence action against PHBPU in %” value (Pharbitis purpurea [23]; 5 g/ha) was 90% and the “Post-emergence action against PHBPU in %” value (Pharbitis purpurea [23]; 20 g/ha) was 90%. For the same molecule, the “Post-emergence action against PHBPU in %” value (Pharbitis purpurea [23]; 80 g/ha) was 100%, the “Pre-emergence action against ECHCG” value (Echinochloa crus-galli [24]; 80 g/ha) was 80% and the “Pre-emergence action against ECHCG” value (Echinochloa crus-galli [24]; 320 g/ha) was 100%. The “Post-emergence action against AMARE in %” value (Amaranthus retroflexus [25]; 5 g/ha) was 100%, the “Post-emergence action against AMARE in %” value (Amaranthus retroflexus [25]; 20 g/ha) was 100% and the “Post-emergence action against AMARE in %” value (Amaranthus retroflexus [25]; 80 g/ha) was 100%. The “Post-emergence action against SETVI in %” value (Setaria viridis [26]; 5 g/ha) was 90%, the “Post-emergence action against SETVI in %” value (Setaria viridis [26]; 20 g/ha) was 90% and the “Post-emergence action against SETVI in %” value (Setaria viridis [26]; 80 g/ha) was 100%.
